The target in assay [1] is T1, mutant HIV reverse transcriptase, Y181C mutation (Human immunodeficiency virus type 1 group M subtype B, UniProt P04585, Y768C).
T1 construct: made in house
Kind of assay: Analogous RT inhibition assay, Y181C mutant. The format is biochemical. The procedure:
(§1) 100 μL reaction mixtures were initiated with a combination of primer-template substrate (10 nM final concentration) and dNTPs (0.6 μM dNTPs, 0.75 μM [^3H]-dGTP). The heterodimeric nucleic acid substrate was generated by annealing the DNA primer pD500 (described in Shaw-Reid et al., J. Biol. Chem., 278: 2777-2780; obtained from Integrated DNA Technologies) to t500, a 500 nucleotide RNA template created by in vitro transcription (see Shaw-Reid et al., J. Biol. Chem., 278: 2777-2780). After 1 hour incubation at 37° C., reactions were quenched by 10 μL streptavidin scintillation proximity assay beads (10 mg/mL, from Amersham Biosciences) in 0.5 M EDTA, pH 8. Microtiter plates were incubated an additional 10 minutes at 37° C. prior to quantification via Topcount (Packard).
(§2) Analogous assays were conducted substituting mutant HIV strains to determine the […] inhibition of compounds of the present invention against mutant HIV reverse transcriptase. In one strain the reverse transcriptase has the Y181C mutation and in the other strain the reverse transcriptase has the K103N mutation. The mutations were generated with the […] site-directed mutagenesis kit (Stratagene).

Assay [2] concerns the target T2, mutant HIV reverse transcriptase, K103N mutation (Human immunodeficiency virus type 1 group M subtype B, UniProt P04585, K690N).
T2 construct: made in house
Kind of assay: Analogous RT inhibition assay, K103N mutant. Format: biochemical. The procedure:
as §1, §2

Assay [3] relates to acute HIV infection of T-lymphoid cells. Kind of assay: Assay for inhibition of HIV replication (spread assay). Format: cell-based. The conditions noted are these: Human immunodeficiency virus 1; inhibition of HIV replication in T-lymphoid cells. The procedure:
An assay for the inhibition of acute HIV infection of T-lymphoid cells (alternatively referred to herein as the “spread assay”) was conducted in accordance with Vacca, J. P. et al., Proc. Natl. Acad. Sci. USA 1994, 91: 4096. […] The compounds of Examples 2-4 and 22 were not tested.

[4] abbreviates: Y181C mutant RT, tested up to 20 micromolar, read-out: IC50, Y181C mutant assay.
The mark [5] stands for this setting: K103N mutant RT, tested up to 20 micromolar, read-out: IC50, K103N mutant assay.

Where two headings read alike, the source gives them in different places.

`COCc1nc(-c2[nH]c3ccc(Cl)cc3c2S(=O)(=O)c2ccccc2)no1` [Example 1, 5-chloro-2-[5-(methoxymethyl)-1,2,4-oxadiazol-3-yl]-3-(phenylsulfonyl)-1H-indole]: the IC50 in assay [1] and in assay [2] was over 20000 nM each time. Moreover, the 95% effect concentration (IC95) in assay [3] was under 1000 nM.
For `O=S(=O)(c1ccccc1)c1c(-c2nc(-c3ccccn3)cs2)[nH]c2ccc(Cl)cc12` [Example 3, 5-chloro-3-(phenylsulfonyl)-2-(4-pyridin-2-yl-1,3-thiazol-2-yl)-1H-indole], the 50% inhibitory concentration (IC50) in assay [1] (setting [4]) and in assay [2] (setting [5]) was over 20000 nM in each case.
With `O=S(=O)(c1ccccc1)c1c(-c2nc(-c3cccnc3)cs2)[nH]c2ccc(Cl)cc12` [Example 4, 5-chloro-3-(phenylsulfonyl)-2-(4-pyridin-3-yl-1,3-thiazol-2-yl)-1H-indole], the half-maximal inhibitory concentration (IC50) in assay [1] (setting [4]) and in assay [2] (setting [5]) was over 20000 nM in each case.
With `O=S(=O)(c1ccccc1)c1c(-c2noc(-c3ccccc3F)n2)[nH]c2ccc(Cl)cc12` [Example 7, 5-chloro-2-[5-(2-fluorophenyl)-1,2,4-oxadiazol-3-yl]-3-(phenylsulfonyl)-1H-indole], the IC50 in assay [1] (setting [4]) and in assay [2] (setting [5]) was over 20000 nM each time. This compound also yielded an IC95 in assay [3] of under 1000 nM.
For the compound `O=S(=O)(c1ccccc1)c1c(-c2noc([C@@H]3C[C@H]3c3ccccc3)n2)[nH]c2ccc(Cl)cc12` [Example 8, 5-chloro-2-{5-[(1R,2R)-2-phenylcyclopropyl]-1,2,4-oxadiazol-3-yl}-3-(phenylsulfonyl)-1H-indole], the IC50 in assay [1] (setting [4]) and in assay [2] (setting [5]) was over 20000 nM each time. Also, the concentration for an effect of 95% (IC95) in assay [3] worked out at 2500 nM.
Take `O=S(=O)(c1ccccc1)c1c(-c2noc(COc3ccccc3)n2)[nH]c2ccc(Cl)cc12` [Example 9, 5-chloro-2-[5-(phenoxymethyl)-1,2,4-oxadiazol-3-yl]-3-(phenylsulfonyl)-1H-indole]: the IC50 in assay [1] (setting [4]) and in assay [2] (setting [5]) was over 20000 nM throughout. In assay [3], this compound had an IC95 of under 1000 nM.
Regarding `O=S(=O)(c1ccccc1)c1c(-c2noc(-c3ccncc3)n2)[nH]c2ccc(Cl)cc12` [Example 10, 5-chloro-3-(phenylsulfonyl)-2-(5-pyridin-4-yl-1,2,4-oxadiazol-3-yl)-1H-indole], the concentration for half-maximal inhibition (IC50) in assay [1] is 1000 to 20000 nM; in assay [2] (setting [5]), over 20000 nM. Also, the IC95 in assay [3] is under 1000 nM.
Consider `O=S(=O)(c1ccccc1)c1c(-c2noc(-c3ccc(F)cc3F)n2)[nH]c2ccc(Cl)cc12` [Example 11, 5-chloro-2-[5-(2,4-difluorophenyl)-1,2,4-oxadiazol-3-yl]-3-(phenylsulfonyl)-1H-indole], for which the half-inhibitory concentration (IC50) in assay [1] (setting [4]) and in assay [2] (setting [5]) was over 20000 nM in each case. Further, the 95% effect concentration (IC95) in assay [3] is under 1000 nM.
Turning to `Cc1nc(-c2[nH]c3ccc(Cl)cc3c2S(=O)(=O)c2ccccc2)no1` [Example 12, 5-chloro-2-(5-methyl-1,2,4-oxadiazol-3-yl)-3-(phenylsulfonyl)-1H-indole], the IC50 in assay [1] (setting [4]) and in assay [2] (setting [5]) was over 20000 nM each time. In assay [3], the IC95 is under 1000 nM.
`O=S(=O)(c1ccccc1)c1c(-c2noc(C3CCC3)n2)[nH]c2ccc(Cl)cc12` [Example 13, 5-chloro-2-(5-cyclobutyl-1,2,4-oxadiazol-3-yl)-3-(phenylsulfonyl)-1H-indole]: the half-inhibitory concentration (IC50) in assay [1] (setting [4]) and in assay [2] (setting [5]) was over 20000 nM each time. The same compound had an IC95 in assay [3] of under 1000 nM.
`O=S(=O)(c1ccccc1)c1c(-c2noc(Cc3ccccc3)n2)[nH]c2ccc(Cl)cc12` [Example 14, 2-(5-benzyl-1,2,4-oxadiazol-3-yl)-5-chloro-3-(phenylsulfonyl)-1H-indole]: the IC50 in assay [1] (setting [4]) and in assay [2] (setting [5]) was over 20000 nM throughout. In addition, the IC95 in assay [3] is under 1000 nM.
Take `CCc1nc(-c2[nH]c3ccc(Cl)cc3c2S(=O)(=O)c2ccccc2)no1` [Example 15, 5-chloro-2-(5-ethyl-1,2,4-oxadiazol-3-yl)-3-(phenylsulfonyl)-1H-indole]: the IC50 in assay [1] (setting [4]) and in assay [2] (setting [5]) was over 20000 nM throughout. In assay [3], the concentration for an effect of 95% (IC95) is under 1000 nM.
As to `Cc1cnc(-c2[nH]c3ccc(Br)cc3c2S(=O)(=O)N2CCCC2)[nH]1` [Example 16, 5-Bromo-2-(4-methyl-1H-imidazol-2-yl)-3-(pyrrolidin-1-ylsulfonyl)-1H-indole], the IC50 in assay [1] and in assay [2] (setting [5]) was under 1000 nM in each case. In assay [3], the IC95 is under 1000 nM.
Regarding `O=S(=O)(c1c(-c2nc3ccccc3[nH]2)[nH]c2ccc(Br)cc12)N1CCCC1` [Example 17, 2-[5-bromo-3-(pyrrolidin-1-ylsulfonyl)-1H-indol-2-yl]-1H-benzimidazole], the half-maximal inhibitory concentration (IC50) in assay [1] and in assay [2] (setting [5]) was under 1000 nM each time. In addition, in assay [3], the IC95 is under 1000 nM.
For `O=S(=O)(c1c(-c2nc([C@H](O)[C@@H](O)[C@@H](O)CO)c[nH]2)[nH]c2ccc(Br)cc12)N1CCCC1` [Example 18, (1S,2R,3S)-1-{2-[5-bromo-3-(pyrrolidin-1-ylsulfonyl)-1H-indol-2-yl}-1H-imidazol-4-yl}butane-1,2,3,4-tetrol], the IC50 in assay [1] was 1000 to 20000 nM; in assay [2] (setting [5]) it was under 1000 nM. The 95% effect concentration (IC95) in assay [3] was under 1000 nM.
As for `O=S(=O)(c1c(-c2nc(-c3ccc(N4CCOCC4)cc3)c[nH]2)[nH]c2ccc(Br)cc12)N1CCCC1` [Example 19, 5-bromo-2-[4-(4-morpholin-4-ylphenyl)-1H-imidazol-2-yl]-3-(pyrrolidin-1-ylsulfonyl)-1H-indole], the IC50 in assay [1] is over 20000 nM; in assay [2] (setting [5]) it was under 1000 nM. This compound gave an IC95 in assay [3] of under 1000 nM.
In the case of `CCC(OC)c1cnc(-c2[nH]c3ccc(Br)cc3c2S(=O)(=O)N2CCCC2)[nH]1` (stereo not drawn) [Example 21, 5-bromo-2-[4-(1-methoxypropyl)-1H-imidazol-2-yl]-3-(pyrrolidin-1-ylsulfonyl)-1H-indole], the concentration for half-maximal inhibition (IC50) in assay [1] is 1000 to 20000 nM; in assay [2] (setting [5]) it was under 1000 nM. The compound also displayed a 95% effect concentration (IC95) in assay [3] of under 1000 nM.
With `O=S(=O)(c1c(-c2nc(-c3ccc(F)cc3F)c[nH]2)[nH]c2ccc(Br)cc12)N1CCCC1` [Example 22, 5-bromo-2-[4-(2,4-difluorophenyl)-1H-imidazol-2-yl]-3-(pyrrolidin-1-ylsulfonyl)-1H-indole], the figures for the half-maximal inhibitory concentration (IC50) in assay [1] (setting [4]) and in assay [2] (setting [5]) were over 20000 nM and under 1000 nM, respectively.
In the case of `O=S(=O)(c1c(-c2ncc(-c3ccccc3)[nH]2)[nH]c2ccc(Br)cc12)N1CCCC1` [Example 23, 5-bromo-2-(4-phenyl-1H-imidazol-2-yl)-3-(pyrrolidin-1-ylsulfonyl)-1H-indole], the IC50 in assay [1] (setting [4]) is over 20000 nM; in assay [2] (setting [5]), under 1000 nM. In assay [3], the concentration for an effect of 95% (IC95) is under 1000 nM.
Turning to `O=S(=O)(c1c(-c2nc(-c3ccc(Cl)cc3)c[nH]2)[nH]c2ccc(Br)cc12)N1CCCC1` [Example 24, 5-bromo-2-[4-(4-chlorophenyl)-1H-imidazol-2-yl]-3-(pyrrolidin-1-ylsulfonyl)-1H-indole], the IC50 in assay [1] (setting [4]) was over 20000 nM; in assay [2] (setting [5]), under 1000 nM. The compound further displayed an IC95 in assay [3] of under 1000 nM.
As to `O=S(=O)(c1c(-c2nc(-c3ccc(F)cc3)c[nH]2)[nH]c2ccc(Br)cc12)N1CCCC1` [Example 25, 5-bromo-2-[4-(4-fluorophenyl)-1H-imidazol-2-yl]-3-(pyrrolidin-1-ylsulfonyl)-1H-indole], the IC50 in assay [1] (setting [4]) is over 20000 nM; in assay [2] (setting [5]), under 1000 nM. Besides, the IC95 in assay [3] was under 1000 nM.
As to `O=S(=O)(c1c(-c2nc(-c3ccc(F)c(F)c3)c[nH]2)[nH]c2ccc(Br)cc12)N1CCCC1` [Example 26, 5-bromo-2-[4-(3,4-difluorophenyl)-1H-imidazol-2-yl]-3-(pyrrolidin-1-ylsulfonyl)-1H-indole], the 50% inhibitory concentration (IC50) is over 20000 nM in assay [1] (setting [4]) and under 1000 nM in assay [2] (setting [5]). The compound also registered a 95% effect concentration (IC95) in assay [3] of under 1000 nM.
In the case of `O=S(=O)(c1c(-c2nc(-c3ccc(O)cc3)c[nH]2)[nH]c2ccc(Br)cc12)N1CCCC1` [Example 27, 4-{2-[5-bromo-3-(pyrrolidin-1-ylsulfonyl)-1H-indol-2-yl]-1H-imidazol-4-yl}phenol], the IC50 was 1000 to 20000 nM in assay [1] (setting [4]) and under 1000 nM in assay [2] (setting [5]). In assay [3], this compound returned an IC95 of under 1000 nM.
For `COc1ccc(-c2c[nH]c(-c3[nH]c4ccc(Br)cc4c3S(=O)(=O)N3CCCC3)n2)cc1` [Example 28, 5-bromo-2-[4-(4-methoxyphenyl)-1H-imidazol-2-yl]-3-(pyrrolidin-1-ylsulfonyl)-1H-indole], the IC50 in assay [1] (setting [4]) was 1000 to 20000 nM; in assay [2] (setting [5]) it was under 1000 nM. Also, the IC95 in assay [3] is under 1000 nM.
For the compound `O=S(=O)(c1c(-c2nc(-c3ccc4c(c3)OCO4)c[nH]2)[nH]c2ccc(Br)cc12)N1CCCC1` [Example 30, 2-[4-(1,3-benzodioxol-5-yl)-1H-imidazol-2-yl]-5-bromo-3-(pyrrolidin-1-ylsulfonyl)-1H-indole], the results for the IC50 in assay [1] (setting [4]) and in assay [2] (setting [5]) were 1000 to 20000 nM and under 1000 nM, respectively. The concentration for an effect of 95% (IC95) in assay [3] is under 1000 nM.

By IC50 is commonly meant the concentration needed to halve the response being measured. Broadly, the IC95 is the concentration needed for an effect of 95%. A lower IC95 goes with greater potency.

Source of the values: patent US20100168097A1, “Non-Nucleoside Reverse Transcriptase Inhibitors” (priority 2005, published 2010).
